This note sets out measurements from ChEMBL document CHEMBL1287722, “Azaindole N-methyl hydroxamic acids as HIV-1 integrase inhibitors-II. The impact of physicochemical properties on ADME and PK” (Bioorg Med Chem Lett, 2010).

For orientation: CC50 means the concentration at which the toxic effect on the cells reaches its halfway point. Low values mean harm at low concentration, high ones better tolerance by the cells. As a reminder, the EC50 is the concentration giving half of the maximal effect. As a reminder, the IC50 is the midpoint of a concentration-inhibition curve. Broadly, the bioavailability is dose-corrected exposure relative to a reference, in per cent. High values mean good availability, low ones poor availability. For orientation: half-life means how long it takes for the measured level to halve. The low end stands for rapid decline, the high end for slow decline.

A short description of data set [1]: Cytotoxicity against human CEM-SS cells by XTT assay. It counts as cell-based. A general note: Formazan colour is commonly taken as a measure of viable cells.
The nature of data set [2]: Metabolic stability in human hepatocyte assessed as extraction ratio at 4 hrs. It counts as ADME, cell-based. The settings on record: hepatocytes.
Data set [3] deals with Human immunodeficiency virus 1. Description: Antiviral activity against HIV1 RF infected in human CEM-SS cells assessed as inhibition of virus-induced cytopathic effect after 6 days by XTT assay. It counts as functional, organism-based. The settings on record: Human immunodeficiency virus 1, RF, 144 h.
In data set [4] the target is Human immunodeficiency virus type 1 integrase (Human immunodeficiency virus 1, UniProt Q7ZJM1). The experiment in a line: Inhibition of HIV1 RF integrase after 50 mins by strand transfer scintillation proximity assay.
A short description of data set [5]: Oral bioavailability in dog at 1 mg/kg, iv and 5 mg/kg, po. The format is ADME, organism-based, Canis lupus familiaris. The settings on record: in vivo.
The nature of data set [6]: Volume of distribution at steady state in dog at 1 mg/kg, iv and 5 mg/kg, po. The format is ADME, organism-based, Canis lupus familiaris. As to conditions: in vivo, read-out: Vdss.
Data set [7] can be described thus: Plasma clearance in dog at 1 mg/kg, iv and 5 mg/kg, po. It counts as ADME, organism-based, Canis lupus familiaris.
A short description of data set [8]: Half life in dog at 1 mg/kg, iv and 5 mg/kg, po. It counts as ADME, organism-based, Canis lupus familiaris. The settings on record: in vivo.
The target in the next data set is Cytochrome P450 3A4 (Homo sapiens, UniProt P08684). The experiment in a line: Inhibition of CYP3A4. The format is ADME.
The test system of another data set is Hepacivirus hominis. The experiment in a line: Inhibition of HCV RNA-directed RNA polymerase.
In data set [9] the target is Voltage-gated inwardly rectifying potassium channel KCNH2 (Homo sapiens, UniProt Q12809). The experiment in a line: Inhibition of human ERG.
In the next data set the target is Cytochrome P450 2C19 (Homo sapiens, UniProt P33261). Description: Inhibition of CYP2C19. The format is ADME.
A further data set has as its target Cytochrome P450 2D6 (Homo sapiens, UniProt P10635). The experiment in a line: Inhibition of CYP2D6. It counts as ADME.
A further data set deals with Cytochrome P450 2C9 (Homo sapiens, UniProt P11712). The experiment in a line: Inhibition of CYP2C9. It counts as ADME.
A short description of data set [10]: Blood clearance in human. It counts as ADME, organism-based. As to conditions: whole blood.
A short description of data set [11]: Inhibition of magnesium dependent protein kinase.
The nature of data set [12]: Inhibition of matrix metalloprotease.
The target of a further data set is T1, Cytochrome P450 2C8 (Homo sapiens, UniProt P10632).
T1 sequence (P10632 whole entry): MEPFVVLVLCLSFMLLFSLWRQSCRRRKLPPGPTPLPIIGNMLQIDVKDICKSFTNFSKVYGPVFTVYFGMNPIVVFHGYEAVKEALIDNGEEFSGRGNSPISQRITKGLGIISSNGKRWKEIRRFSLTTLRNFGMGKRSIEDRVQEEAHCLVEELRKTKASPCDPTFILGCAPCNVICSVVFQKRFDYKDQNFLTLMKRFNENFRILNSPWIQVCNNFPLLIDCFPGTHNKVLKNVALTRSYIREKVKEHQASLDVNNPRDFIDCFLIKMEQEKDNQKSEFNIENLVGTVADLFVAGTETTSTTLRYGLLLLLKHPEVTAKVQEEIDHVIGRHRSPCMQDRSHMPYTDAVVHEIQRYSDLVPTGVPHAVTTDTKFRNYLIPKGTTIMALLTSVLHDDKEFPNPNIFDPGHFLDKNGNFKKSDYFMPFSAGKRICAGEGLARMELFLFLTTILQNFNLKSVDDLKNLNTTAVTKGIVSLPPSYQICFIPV
Description: Inhibition of CYP2C8. It counts as ADME.

The target of a further data set is T2, Cytochrome P450 1A2 (Homo sapiens, UniProt P05177).
T2 sequence (P05177 whole entry): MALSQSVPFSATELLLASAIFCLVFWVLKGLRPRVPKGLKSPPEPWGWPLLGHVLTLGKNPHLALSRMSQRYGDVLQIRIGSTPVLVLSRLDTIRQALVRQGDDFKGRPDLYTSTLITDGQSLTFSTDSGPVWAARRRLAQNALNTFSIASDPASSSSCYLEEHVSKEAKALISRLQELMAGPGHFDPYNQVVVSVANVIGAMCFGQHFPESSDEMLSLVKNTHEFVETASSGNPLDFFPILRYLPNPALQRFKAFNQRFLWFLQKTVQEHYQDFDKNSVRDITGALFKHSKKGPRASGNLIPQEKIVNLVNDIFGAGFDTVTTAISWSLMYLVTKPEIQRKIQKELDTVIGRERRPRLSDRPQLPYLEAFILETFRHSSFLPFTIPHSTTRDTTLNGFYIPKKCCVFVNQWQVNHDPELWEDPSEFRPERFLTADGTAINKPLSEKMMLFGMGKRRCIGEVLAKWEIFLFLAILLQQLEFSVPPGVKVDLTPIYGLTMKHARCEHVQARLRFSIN
Description: Inhibition of CYP1A2. The format is ADME.

Data set [13] can be described thus: Oral bioavailability in human. The format is ADME, organism-based. As to conditions: in vivo.
Data set [14] in a line: Volume of distribution at steady state in human. It counts as ADME, organism-based. As to conditions: in vivo, read-out: Vdss.

Calls of active or inactive are those of the source. No cut-off for these calls is given here.

Human immunodeficiency virus type 1 integrase, sequence (Q7ZJM1 whole entry): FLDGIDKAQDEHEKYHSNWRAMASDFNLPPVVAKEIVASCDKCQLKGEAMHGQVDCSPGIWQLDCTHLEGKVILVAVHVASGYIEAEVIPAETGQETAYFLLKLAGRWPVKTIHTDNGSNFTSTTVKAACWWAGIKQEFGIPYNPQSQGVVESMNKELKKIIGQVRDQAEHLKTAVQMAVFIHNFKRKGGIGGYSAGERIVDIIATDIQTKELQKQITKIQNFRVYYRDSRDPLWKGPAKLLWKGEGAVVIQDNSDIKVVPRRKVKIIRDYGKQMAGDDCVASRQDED
Voltage-gated inwardly rectifying potassium channel KCNH2, sequence (Q12809 whole entry): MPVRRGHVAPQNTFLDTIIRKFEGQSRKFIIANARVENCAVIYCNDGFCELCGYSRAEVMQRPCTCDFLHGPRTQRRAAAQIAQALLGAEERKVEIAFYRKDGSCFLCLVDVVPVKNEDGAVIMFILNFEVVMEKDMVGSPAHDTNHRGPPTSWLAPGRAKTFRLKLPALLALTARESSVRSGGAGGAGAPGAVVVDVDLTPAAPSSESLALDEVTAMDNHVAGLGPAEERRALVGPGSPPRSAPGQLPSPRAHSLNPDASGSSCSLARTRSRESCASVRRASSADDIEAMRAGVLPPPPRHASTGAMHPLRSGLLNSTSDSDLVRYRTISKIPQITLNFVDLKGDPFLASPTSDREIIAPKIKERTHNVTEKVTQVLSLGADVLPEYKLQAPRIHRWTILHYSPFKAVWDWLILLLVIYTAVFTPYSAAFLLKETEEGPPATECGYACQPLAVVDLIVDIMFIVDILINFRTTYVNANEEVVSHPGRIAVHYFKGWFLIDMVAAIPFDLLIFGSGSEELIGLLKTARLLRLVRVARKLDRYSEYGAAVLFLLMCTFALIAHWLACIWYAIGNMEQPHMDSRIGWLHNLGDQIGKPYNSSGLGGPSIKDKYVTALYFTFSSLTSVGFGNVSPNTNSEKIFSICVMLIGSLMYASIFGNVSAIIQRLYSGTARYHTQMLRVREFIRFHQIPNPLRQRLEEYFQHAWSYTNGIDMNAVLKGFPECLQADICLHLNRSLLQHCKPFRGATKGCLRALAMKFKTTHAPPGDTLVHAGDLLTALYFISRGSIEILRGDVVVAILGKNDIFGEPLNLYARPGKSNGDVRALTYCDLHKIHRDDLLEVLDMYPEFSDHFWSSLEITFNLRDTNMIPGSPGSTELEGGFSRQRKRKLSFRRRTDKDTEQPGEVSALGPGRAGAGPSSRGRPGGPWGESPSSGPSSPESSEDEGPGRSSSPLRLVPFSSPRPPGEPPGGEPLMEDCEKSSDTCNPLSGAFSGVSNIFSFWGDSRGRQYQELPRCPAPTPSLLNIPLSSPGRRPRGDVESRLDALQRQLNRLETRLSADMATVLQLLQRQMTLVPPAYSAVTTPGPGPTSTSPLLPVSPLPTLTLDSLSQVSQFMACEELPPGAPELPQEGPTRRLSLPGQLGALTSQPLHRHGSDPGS
Cytochrome P450 2C19, sequence (P33261 whole entry): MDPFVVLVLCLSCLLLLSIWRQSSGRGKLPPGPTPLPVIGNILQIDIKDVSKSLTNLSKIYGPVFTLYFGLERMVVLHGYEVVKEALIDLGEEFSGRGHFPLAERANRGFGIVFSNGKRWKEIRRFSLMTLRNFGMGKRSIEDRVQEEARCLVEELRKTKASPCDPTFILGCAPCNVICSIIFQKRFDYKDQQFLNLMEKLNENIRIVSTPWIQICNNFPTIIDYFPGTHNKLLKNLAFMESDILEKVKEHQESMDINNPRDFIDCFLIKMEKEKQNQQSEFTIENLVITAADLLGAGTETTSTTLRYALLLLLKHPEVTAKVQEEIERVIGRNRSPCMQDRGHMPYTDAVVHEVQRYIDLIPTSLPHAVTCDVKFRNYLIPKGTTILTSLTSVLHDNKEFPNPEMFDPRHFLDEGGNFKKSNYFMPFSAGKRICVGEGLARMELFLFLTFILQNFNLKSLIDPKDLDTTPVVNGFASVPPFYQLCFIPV
Cytochrome P450 2D6, sequence (P10635 whole entry): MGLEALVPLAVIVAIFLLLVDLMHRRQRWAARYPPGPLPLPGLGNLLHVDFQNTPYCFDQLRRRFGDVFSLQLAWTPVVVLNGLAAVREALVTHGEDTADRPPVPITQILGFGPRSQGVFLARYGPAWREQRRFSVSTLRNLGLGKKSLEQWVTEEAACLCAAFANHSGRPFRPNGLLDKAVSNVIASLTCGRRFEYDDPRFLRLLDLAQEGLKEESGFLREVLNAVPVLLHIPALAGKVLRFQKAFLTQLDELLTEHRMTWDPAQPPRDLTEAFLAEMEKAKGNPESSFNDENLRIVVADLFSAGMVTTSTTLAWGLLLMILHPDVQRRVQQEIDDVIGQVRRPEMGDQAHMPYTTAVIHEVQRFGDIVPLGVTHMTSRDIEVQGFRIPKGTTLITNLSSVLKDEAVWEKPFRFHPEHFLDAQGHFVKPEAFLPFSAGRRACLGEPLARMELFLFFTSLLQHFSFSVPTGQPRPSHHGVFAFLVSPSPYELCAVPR
Cytochrome P450 2C9, sequence (P11712 whole entry): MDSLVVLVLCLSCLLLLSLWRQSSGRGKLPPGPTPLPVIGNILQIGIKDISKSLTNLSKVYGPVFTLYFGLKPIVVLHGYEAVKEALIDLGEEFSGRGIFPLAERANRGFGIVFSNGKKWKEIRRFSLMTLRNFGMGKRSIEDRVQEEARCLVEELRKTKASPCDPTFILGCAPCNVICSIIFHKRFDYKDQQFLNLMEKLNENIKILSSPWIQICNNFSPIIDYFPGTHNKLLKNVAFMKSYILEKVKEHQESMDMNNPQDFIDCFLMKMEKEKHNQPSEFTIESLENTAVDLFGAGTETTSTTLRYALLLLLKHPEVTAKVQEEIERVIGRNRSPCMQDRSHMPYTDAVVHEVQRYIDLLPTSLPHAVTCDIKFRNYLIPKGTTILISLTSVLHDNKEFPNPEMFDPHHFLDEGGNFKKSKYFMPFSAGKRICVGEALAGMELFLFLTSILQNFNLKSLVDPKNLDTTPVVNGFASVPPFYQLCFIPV
Cytochrome P450 3A4, sequence (P08684 whole entry): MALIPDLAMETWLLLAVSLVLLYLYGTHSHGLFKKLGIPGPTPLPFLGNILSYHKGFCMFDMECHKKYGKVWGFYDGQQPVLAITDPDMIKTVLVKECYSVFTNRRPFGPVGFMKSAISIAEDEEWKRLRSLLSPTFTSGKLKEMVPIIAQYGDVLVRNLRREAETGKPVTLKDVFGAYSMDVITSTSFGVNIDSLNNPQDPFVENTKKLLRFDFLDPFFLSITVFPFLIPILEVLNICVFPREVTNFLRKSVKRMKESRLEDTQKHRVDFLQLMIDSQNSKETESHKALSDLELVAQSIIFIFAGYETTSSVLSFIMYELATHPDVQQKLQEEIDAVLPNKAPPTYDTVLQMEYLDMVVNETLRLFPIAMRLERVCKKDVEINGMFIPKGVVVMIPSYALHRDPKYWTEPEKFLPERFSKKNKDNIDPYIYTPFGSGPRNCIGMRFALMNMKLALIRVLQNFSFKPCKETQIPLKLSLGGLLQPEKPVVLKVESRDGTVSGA

With `CC(C)NC(=O)c1cn(Cc2ccc(F)cc2)c2cnc(C(=O)N(C)O)cc12`, the CC50 in data set [1] was greater than 100 µM. In data set [2], the hepatic extraction ratio at 4 h came out at 0.25. For the same compound, the EC50 in [3] amounted to 110 nM. This compound also returned a half-inhibitory concentration (IC50) in data set [4] of 251 nM.

`CN(O)C(=O)c1cc2c(C(=O)N3CCC[C@@H]3CO)cn(Cc3ccc(F)cc3)c2cn1`: the 50% cytotoxic concentration (CC50) in data set [1] was greater than 32 µM. For the same compound, in data set [2], the hepatic extraction ratio at 4 h is 0.2. The half-maximal effective concentration (EC50) in data set [3] came to 170 nM. This compound gave an IC50 in [4] of 319 nM.

The compound `CN(O)C(=O)c1cc2c(COC3CCOCC3)cn(Cc3ccc(F)cc3)c2cn1` showed a CC50 in data set [1] greater than 100 µM. The hepatic extraction ratio at 4 h in data set [2] stood at 0.86. Further, in data set [3], the EC50 worked out at 57 nM. For the same compound, half-maximal inhibition in data set [4] (IC50) was put at 313 nM.

Turning to `COCc1cn(Cc2ccc(F)cc2)c2cnc(C(=O)N(C)O)cc12`, it took 266 µM to reach half-maximal cytotoxicity in data set [1] (CC50). The hepatic extraction ratio at 4 h in data set [2] was 1. Besides, the concentration giving a half-maximal response (EC50) in data set [3] is 41 nM. Besides, the half-maximal inhibitory concentration (IC50) in data set [4] came to 242 nM.

The compound `CN(O)C(=O)c1cc2c(CCCO)cn(Cc3ccc(F)cc3)c2cn1` registered a half-maximal cytotoxic concentration (CC50) in data set [1] greater than 10 µM. Besides, the hepatic extraction ratio at 4 h in data set [2] stood at 1. In addition, the concentration for a half-maximal effect (EC50) in [3] is 41 nM. This compound also registered an IC50 in data set [4] of 340 nM.

Regarding `CN(O)C(=O)c1cc2c(CN3CCC[C@@H]3C(N)=O)cn(Cc3ccc(F)cc3)c2cn1`, the CC50 in data set [1] was greater than 100 µM. In addition, the EC50 in data set [3] amounted to 80 nM.

On to `CCOCCOCc1cn(Cc2ccc(F)cc2)c2cnc(C(=O)N(C)O)cc12`, for which, in [1], the CC50 was found to be 81 µM. Moreover, the hepatic extraction ratio at 4 h in [2] turned out to be 0.57. Moreover, the concentration giving a half-maximal response (EC50) in data set [3] came out at 57 nM. Also, the half-maximal inhibitory concentration (IC50) in data set [4] amounted to 308 nM.

In the case of `CN(O)C(=O)c1cc2c(CCCN3CCOCC3)cn(Cc3ccc(F)cc3)c2cn1`, in data set [1], the CC50 is greater than 10 µM. Moreover, the hepatic extraction ratio at 4 h in data set [2] came to 0.98. Further, in [3], the EC50 came out at 470 nM. Moreover, the concentration for half-maximal inhibition (IC50) in [4] amounted to 559 nM.

For `CN(O)C(=O)c1cc2c(CN3CCC(O)C3)cn(Cc3ccc(F)cc3)c2cn1` (stereo not given), in [1], the CC50 was greater than 100 µM. Also, the hepatic extraction ratio at 4 h in data set [2] is 0.55. Further, the EC50 in [3] was found to be 747 nM. In data set [4], this compound yielded an IC50 of 1420 nM.

In [1], `CN(O)C(=O)c1cc2c(C(=O)NCCN3CCOCC3)cn(Cc3ccc(F)cc3)c2cn1` yielded a CC50 of 32 µM. Besides, the hepatic extraction ratio at 4 h in data set [2] was determined as 0.25. Besides, the EC50 in [3] was 210 nM. This compound gave an IC50 in [4] of 503 nM.

For `CN(O)C(=O)c1cc2ccn(Cc3ccc(F)cc3F)c2cn1`, the CC50 in data set [1] was 200 µM. In addition, in data set [3], the concentration for a half-maximal effect (EC50) was determined as 39 nM. This compound also returned a concentration for half-maximal inhibition (IC50) in data set [4] of 250 nM.

`COCCOCCCc1cn(Cc2ccc(F)cc2)c2cnc(C(=O)N(C)O)cc12` returned a cytotoxic concentration (CC50) in data set [1] greater than 10 µM. Also, the hepatic extraction ratio at 4 h in [2] was 0.97. Also, the EC50 in [3] is 220 nM. In [4], this compound yielded an IC50 of 552 nM.

Regarding `CN(O)C(=O)c1cc2c(CN3CCNC(=O)C3)cn(Cc3ccc(F)cc3)c2cn1`, the bioavailability in data set [5] was determined as 20%. Also, the Vd in data set [6] is 1.8 L/kg. In data set [7], this compound came in with a clearance of 24 mL/min/kg. The half-life in data set [8] is 76.2 min. Moreover, the 50% cytotoxic concentration (CC50) in [1] was greater than 100 µM. The hepatic extraction ratio at 4 h in data set [2] was 0.3. Also, in data set [3], the concentration giving a half-maximal response (EC50) was determined as 150 nM. The compound also showed a half-inhibitory concentration (IC50) in data set [4] of 388 nM.

As to `CN1CCN(Cc2cn(Cc3ccc(F)cc3)c3cnc(C(=O)N(C)O)cc23)CC1`, the cytotoxic concentration (CC50) in [1] is greater than 224 µM. Further, in data set [2], the hepatic extraction ratio at 4 h stood at 0.55. In addition, in [3], the half-maximal effective concentration (EC50) was found to be 220 nM. In data set [4], this compound returned an IC50 of 534 nM.

In data set [1], `COCCOCc1cn(Cc2ccc(F)cc2)c2cnc(C(=O)N(C)O)cc12` had a half-maximal cytotoxic concentration (CC50) greater than 100 µM. Further, the hepatic extraction ratio at 4 h in [2] was 0.51. The EC50 in data set [3] was determined as 29 nM. Moreover, it took 382 nM to reach half-maximal inhibition in [4] (IC50).

Regarding `CN(O)C(=O)c1cc2c(CN3CCC[C@H]3C(N)=O)cn(Cc3ccc(F)cc3)c2cn1`, the bioavailability worked out at 53% in data set [5] and 41% in [13]. The Vd in data set [6] amounted to 2.32 L/kg; in [14], 2.15 L/kg. Further, the IC50 against Cytochrome P450 3A4 is greater than 30 µM; in data set [9] it was greater than 30 µM; on Cytochrome P450 2C19, greater than 30 µM; on Cytochrome P450 2D6, greater than 30 µM; on Cytochrome P450 2C9 it was greater than 30 µM; in data set [11], greater than 1000 nM. Besides, the IC50 is greater than 50 µM in [12], greater than 30 µM at Cytochrome P450 2C8 and greater than 30 µM against Cytochrome P450 1A2. Besides, in the data set on Hepacivirus hominis, the inhibition result was “inactive”. In addition, the clearance in data set [7] is 15 mL/min/kg; in data set [10], 5.5 mL/min/kg. In [8], the half-life is 372 min. In addition, the midpoint of cytotoxicity in data set [1], the CC50, lay at 216 µM.

Regarding `CN(O)C(=O)c1cc2c(CO)cn(Cc3ccc(F)cc3)c2cn1`, the CC50 in data set [1] was greater than 266 µM. For the same compound, the hepatic extraction ratio at 4 h in data set [2] was found to be 1. Further, in data set [3], the EC50 is 54 nM. The compound also gave a 50% inhibitory concentration (IC50) in data set [4] of 145 nM.

`CN(O)C(=O)c1cc2ccn(Cc3ccc(F)cc3)c2cn1` displayed a CC50 in data set [1] of 135 µM. For the same compound, the IC50 in data set [4] was 250 nM.
